Data: patent US10183947B2, “Pyrazole derivatives useful as 5-lipoxygenase activating protein (FLAP) inhibitors” (ASTRAZENECA AB, priority 2015, dated 2019)
Like-named read-outs stand apart in the source and are kept apart here.

Key:
[1] = molecular target: FLAP (human ALOX5AP expressed in COS-7 cell membranes) (Homo sapiens (Human), UniProt P20292); assay: FLAP Binding Assay (Test A), competition binding with 3H-MK591 as tracer; details: competition with 3H-MK591 (2 nM), membranes from COS-7 cells expressing human ALOX5AP, 60 min at rt
FLAP (human ALOX5AP expressed in COS-7 cell membranes), sequence (P20292 whole entry): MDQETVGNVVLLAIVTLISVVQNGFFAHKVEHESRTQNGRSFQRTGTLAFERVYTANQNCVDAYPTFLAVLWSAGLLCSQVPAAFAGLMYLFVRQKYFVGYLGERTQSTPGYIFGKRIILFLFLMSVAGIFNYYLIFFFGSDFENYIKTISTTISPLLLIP
Protocol: FLAP Binding Assay (Test A) Compounds were tested in a competition binding assay using ^3H-MK591 as tracer. […] Med. Chem. […] A 100,000×g pellet from COS-7 cells stably transfected with a plasmid expressing human ALOX5AP was the source of FLAP. […] Following filtration, filter plates were dried 12 h at RT (or 50° C. for 1 hour). 50 μL scintillant was then added, the filterplates were sealed and radioactivity was measured in a microbeta counter. Specific binding was defined as total binding minus non-specific binding. Total binding was defined as ^3H-MK591 bound to membranes in the absence of competitor, non-specific binding was defined as ^3H-MK591 in the presence of 0.1 mM MK-591. IC50 values were determined by plotting % inhibition versus log compound concentration and using a one site dose response model.

[2] = system: LTB4 production in fresh human whole blood; assay: FLAP Whole Blood Assay (Test B), inhibition of LTB4 production; assay type: cell-based; details: then calcium ionophore A23187, LTB4 by EIA
Protocol: FLAP Whole Blood Assay (Test B)
Compounds were tested for the inhibition of LTB4 production in fresh human whole blood obtained by venapuncture using heparin to prevent clotting. 1.5 μL compounds or DMSO carrier were dispensed into the wells of a 96-well deep-well plate in 3-fold dilution series. 500 μL hepamised whole blood was then added followed by incubation at 37° C. for 30 min (method A) or 4 h (method B). 100 μL blood was subsequently transferred in triplicate to pre-dispensed 0.5 μL 2 mM calcium ionophore (calcimycin; A23187) in a second 96-well plate. Following incubation at 37° C. for 20 min, the assays were stopped by adding 10 μL of stop solution (100 mM EGTA, pH 7.4) and the plate was transferred to ice. The plate was centrifuged at 3000 rpm at 4° C. for 10 min and […] was transferred to a fresh 96 well plate containing 90 μL pre-dispensed EIA assay buffer (0.1 M phosphate buffer+0.1% BSA). LTB4 was then measured using reagents from a commercial EIA (Cayman Chemicals). LTB4 production was defined as the LTB4 level in the presence of a given concentration of test compound minus the LTB4 level in the presence of 50 nM 5-[[4-[(2S,4R)-4-hydroxy-2-methyl-tetrahydropyran-4-yl]-2-thienyl]sulfanyl]-1-methyl-indolin-2-one. (Preparation of 5-[[4-[(2S,4R)-4-hydroxy-2-methyl-tetrahydropyran-4-yl]-2-thienyl]sulfanyl]-1-methyl-indolin-2-one was described in Org. Process Res. Dev., 2005, 9, 555-569 or EP623614 B1). Inhibition of LTB4 production was defined as the LTB4 level in the presence of a given concentration of test compound expressed as a % of the LTB4 level in the presence of DMSO. IC50 values were determined by plotting % inhibition versus log compound concentration and using a one site dose response model.

[3] = method B: compound incubated with human whole blood at 37° C. for 4 h, read-out: IC50 nM (method B)
[4] = 0.5 h, method A: compound incubated with human whole blood at 37° C. for 30 min, read-out: IC50 nM (method A)

CN1CCn2ncc(NC(=O)[C@@H]3CCCC[C@H]3C(=O)c3ccc(-c4cc[nH]n4)cc3)c2C1=O [Example 17, (1R,2R)—N-(5-Methyl-4-oxo-4,5,6,7-tetrahydropyrazolo[1,5-a]pyrazin-3-yl)-2-[4-(1H-pyrazol-3-yl)benzoyl]cyclohexanecarboxamide]
IC50 [1]: 20 nM | IC50 [2, 3]: 18 nM

Cc1cc(-c2ccc(C(=O)C3CCCCC3C(=O)Nc3cnn(C)c3C(N)=O)c(F)c2)[nH]n1 (single isomer, unassigned) [Example 37, 4-[({(1R,2R or 1S,2S)-2-[2-Fluoro-4-(3-methyl-1H-pyrazol-5-yl)benzoyl]-cyclohexyl}carbonyl)amino]-1-methyl-1H-pyrazole-5-carboxamide]
IC50 [1]: 27 nM | IC50 [2, 3]: 40 nM

Cn1cc(NC(=O)C2CCCCC2C(=O)c2ccc(-c3cc[nH]n3)cc2)c(C(N)=O)n1 (single isomer, unassigned) [Example 1, 1-Methyl-4-[({(1R,2R or 1S,2S)-2-[4-(1H-pyrazol-3-yl)benzoyl]-cyclohexyl}carbonyl)amino]-1H-pyrazole-3-carboxamide]
IC50 [1]: 73 nM | IC50 [2, 4]: 112 nM

Cn1ncc(NC(=O)C2CCCCC2C(=O)c2ccc(-c3ccn[nH]3)cc2F)c1C(N)=O (single isomer, unassigned) [Example 34, 4-[({(1R,2R or 1S,2S)-2-[2-Fluoro-4-(1H-pyrazol-5-yl)benzoyl]-cyclohexyl}carbonyl)amino]-1-methyl-1H-pyrazole-5-carboxamide]
IC50 [1]: 41 nM | IC50 [2, 3]: 41 nM

CCn1cc(NC(=O)C2CCCCC2C(=O)c2ccc(-c3ccn[nH]3)cc2)c(C(N)=O)n1 (racemic) [Example 42, 1-Ethyl-4-[({(1R,2R and 1S,2S)-2-[4-(1H-pyrazol-5-yl)benzoyl]-cyclohexyl}carbonyl)amino]-1H-pyrazole-3-carboxamide]
IC50 [1]: 200 nM | IC50 [2, 4]: 149 nM

Cc1cc(-c2ccc(C(=O)[C@@H]3CCCC[C@H]3C(=O)Nc3c(C)nn4c3C(=O)NCC4)cc2)n[nH]1 [Example 28, (1R,2R)—N-(2-Methyl-4-oxo-4,5,6,7-tetrahydropyrazolo[1,5-a]pyrazin-3-yl)-2-[4-(5-methyl-1H-pyrazol-3-yl)benzoyl]cyclohexanecarboxamide]
IC50 [1]: 3.9 nM | IC50 [2, 3]: 380 nM

CNC(=O)c1nn(C)cc1NC(=O)C1CCCCC1C(=O)c1ccc(-c2cc[nH]n2)cc1 [Example 20, N,1-Dimethyl-4-[({(1R,2R and 1S,2S)-2-[4-(1H-pyrazol-3-yl)benzoyl]-cyclohexyl}carbonyl)amino]-1H-pyrazole-3-carboxamide]
IC50 [2, 4]: 281 nM

Cc1cc(-c2ccc(C(=O)C3CCCCC3C(=O)Nc3nonc3C(N)=O)c(F)c2)[nH]n1 (single isomer, unassigned) [Example 40, 4-[({(1R,2R or 1S,2S)-2-[2-Fluoro-4-(3-methyl-1H-pyrazol-5-yl)benzoyl]cyclohexyl}carbonyl)amino]-1,2,5-oxadiazole-3-carboxamide]
IC50 [1]: 70 nM | IC50 [2, 4]: 208 nM

Cc1cc(-c2ccc(C(=O)[C@@H]3CCCC[C@H]3C(=O)Nc3cn[nH]c3C(F)F)cc2)n[nH]1 [Example 15, (1R,2R)—N-[5-(Difluoromethyl)-1H-pyrazol-4-yl]-2-[4-(5-methyl-1H-pyrazol-3-yl)benzoyl]cyclohexanecarboxamide]
IC50 [1]: 8.6 nM | IC50 [2, 3]: 28 nM

Cc1cc(NC(=O)C2CCCCC2C(=O)c2ccc(-c3ccn[nH]3)cc2)on1 (racemic) [Example 44, (1R,2R and 1S,2S)—N-(3-Methyl-1,2-oxazol-5-yl)-2-[4-(1H-pyrazol-5-yl)benzoyl]cyclohexanecarboxamide]
IC50 [1]: 46 nM | IC50 [2, 4]: 197 nM

Cc1onc(NC(=O)C2CCCCC2C(=O)c2ccc(-c3ccn[nH]3)cc2F)c1C(N)=O (single isomer, unassigned) [Example 41, 3-[({(1R,2R or 1S,2S)-2-[2-Fluoro-4-(1H-pyrazol-5-yl)benzoyl]-cyclohexyl}carbonyl)amino]-5-methyl-1,2-oxazole-4-carboxamide]
IC50 [1]: 160 nM | IC50 [2, 3]: 272 nM

Cn1ncc(NC(=O)C2CCCCC2C(=O)c2ccc(-c3cc[nH]n3)cc2)c1C#N (single isomer, unassigned) [Example 18a, (1R,2R or 1S,2S)—N-(5-Cyano-1-methyl-1H-pyrazol-4-yl)-2-[4-(1H-pyrazol-3-yl)benzoyl]cyclohexanecarboxamide]
IC50 [1]: 3700 nM

Cc1cc(-c2ccc(C(=O)[C@@H]3CCCC[C@H]3C(=O)Nc3cnn(C)c3C(N)=O)cc2)[nH]n1 [Example 3, 1-Methyl-4-[({(1R,2R)-2-[4-(3-methyl-1H-pyrazol-5-yl)benzoyl]cyclohexyl}-carbonyl)amino]-1H-pyrazole-5-carboxamide]
IC50 [2, 3]: 70 nM

Cc1cc(-c2ccc(C(=O)C3CCCCC3C(=O)Nc3cn(C)nc3C(N)=O)c(F)c2)[nH]n1 (single isomer, unassigned) [Example 36, 4-[({(1R,2R or 1S,2S)-2-[2-Fluoro-4-(3-methyl-1H-pyrazol-5-yl)benzoyl]-cyclohexyl}carbonyl)amino]-1-methyl-1H-pyrazole-3-carboxamide]
IC50 [2, 3]: 148 nM

CCn1ncc(NC(=O)[C@@H]2CCCC[C@H]2C(=O)c2ccc(-c3cc(C)n[nH]3)cc2)c1C(N)=O [Example 19, 1-Ethyl-4-[({(1R,2R)-2-[4-(3-methyl-1H-pyrazol-5-yl)benzoyl]-cyclohexyl}carbonyl)amino]-1H-pyrazole-5-carboxamide]
IC50 [1]: 29 nM | IC50 [2, 3]: 80 nM

Cc1cc(-c2ccc(C(=O)[C@@H]3CCCC[C@H]3C(=O)Nc3c(C(N)=O)n[nH]c3C)cc2)[nH]n1 [Example 22, 5-Methyl-4-[({(1R,2R)-2-[4-(3-methyl-1H-pyrazol-5-yl)benzoyl]-cyclohexyl}carbonyl)amino]-1H-pyrazole-3-carboxamide]
IC50 [1]: 24 nM | IC50 [2, 3]: 740 nM

COc1c(NC(=O)C2CCCCC2C(=O)c2ccc(-c3cc[nH]n3)cc2)cnn1C (racemic) [Example 14, (1R,2R and 1S,2S)—N-(5-Methoxy-1-methyl-1H-pyrazol-4-yl)-2-[4-(1H-pyrazol-3-yl)benzoyl]cyclohexanecarboxamide]
IC50 [1]: 400 nM | IC50 [2, 4]: 654 nM

Cc1coc(NC(=O)C2CCCCC2C(=O)c2ccc(-c3ccn[nH]3)cc2)n1 (racemic) [Example 45, (1R,2R and 1S,2S)—N-(4-Methyl-1,3-oxazol-2-yl)-2-[4-(1H-pyrazol-5-yl)benzoyl]cyclohexanecarboxamide]
IC50 [1]: 210 nM

Cn1nnc(NC(=O)C2CCCCC2C(=O)c2ccc(-c3ccn[nH]3)cc2)c1C1CC1 [Example 33, (1R,2R and 1S,2S)—N-(5-Cyclopropyl-1-methyl-1H-1,2,3-triazol-4-yl)-2-[4-(1H-pyrazol-5-yl)benzoyl]cyclohexanecarboxamide]
IC50 [2, 3]: 117 nM

Cc1cc(-c2ccc(C(=O)[C@@H]3CCCC[C@H]3C(=O)Nc3cnn(C)c3S(N)(=O)=O)cc2)[nH]n1 [Example 13, (1R,2R)-2-[4-(3-Methyl-1H-pyrazol-5-yl)benzoyl]-N-(1-methyl-5-sulfamoyl-1H-pyrazol-4-yl)cyclohexanecarboxamide]
IC50 [2, 3]: 260 nM

Cc1cc(-c2ccc(C(=O)[C@@H]3CCCC[C@H]3C(=O)Nc3cn(C)nc3C(N)=O)cc2)n[nH]1 [Example 4, 1-Methyl-4-[({(1R,2R)-2-[4-(3-methyl-1H-pyrazol-5-yl)benzoyl]-cyclohexyl}carbonyl)amino]-1H-pyrazole-3-carboxamide]
IC50 [2, 3]: 290 nM

Cc1cc(-c2ccc(C(=O)C3CCCCC3C(=O)Nc3cn(C)nc3C#N)cc2)[nH]n1 (single isomer, unassigned) [Example 5b, (1R,2R or 1S,2S)—N-(3-Cyano-1-methyl-1H-pyrazol-4-yl)-2-[4-(3-methyl-1H-pyrazol-5-yl)benzoyl]cyclohexanecarboxamide]
IC50 [2, 3]: 95 nM

Cn1cc(NC(=O)[C@@H]2CCCC[C@H]2C(=O)c2ccc(-c3ccn[nH]3)cc2)c(OC(F)F)n1 [Example 9, (1R,2R)—N-[3-(Difluoromethoxy)-1-methyl-1H-pyrazol-4-yl]-2-[4-(1H-pyrazol-5-yl)benzoyl]cyclohexanecarboxamide]
IC50 [2, 3]: 110 nM
